The values that follow come from US10254297B2, “Assay for methoxetamine” (Randox Laboratories Ltd, priority 2015, dated 2019).

In brackets after ≈: the same amount, converted by molar mass.

The test system of the experiment is antibody raised against Immunogen 2 (Example 9), Tracer 1. Description: Competitive assay (ELISA) for cross-reactivity measurement. As to conditions: for IC50 used in % CCR calculation: standard concentration giving 50% inhibition of maximal signal; for CCR (competitive cross reactivity): Table 1, antibodies raised against Immunogen 2, Tracer 1, relative to methoxetamine = 100%, summarised from FIGS. 5 to 7; for Antibody binding, in words: Table 1 and FIGS. 5 to 7, antibody of the invention. The experiment is classed as binding, sheep.

Where [1] appears, read: FIG. 5 (antibody derived from sheep 1).

Regarding `COc1cccc(C2(N)CCCCC2=O)c1` (stereo not drawn) [N-desethylmethoxetamine, 2-amino-2-(3-methoxyphenyl)cyclohexanone], the “CCR (competitive cross reactivity)” value is on record as more than 5.00% and the “Antibody binding, in words” value was “substantial binding”. The “% CCR (compared to methoxetamine)” value (FIG. 5 (antibody derived from sheep 1), IC50 methoxetamine / IC50 analyte x 100) was 24%. Also, the “IC50 used in % CCR calculation” value under setting [1] was 1.96 ng/mL (≈ 8.94 nM).
Regarding `c1ccc(C2(N3CCCCC3)CCCCC2)cc1` [Phencyclidine], the “CCR (competitive cross reactivity)” value is on record as less than 5.00% and the “Antibody binding, in words” value is “does not bind”.
Turning to `NC1(c2ccccc2Cl)CCCCC1=O` (stereo not drawn) [Norketamine], the “CCR (competitive cross reactivity)” value is on record as less than 5.00%.
For the molecule `CCNC1(c2cccc(OC)c2)CCCCC1=O` (stereo not drawn) [Methoxetamine, 2-(3-methoxyphenyl)-2-(ethylamino)cyclohexanone], the “CCR (competitive cross reactivity)” value was 100.00% and the “Antibody binding, in words” value is given as “high affinity”. The “IC50 used in % CCR calculation” value under setting [1] is 0.47 ng/mL (≈ 1.9 nM).
As to `CCOC(=O)C1(c2ccccc2)CCC=CC1N(C)C` (stereo not drawn) [Tilidine], the “CCR (competitive cross reactivity)” value is given as less than 5.00%.
Turning to `CNC1(c2ccccc2Cl)CCCCC1=O` (stereo not drawn) [Ketamine], the “CCR (competitive cross reactivity)” value is less than 5.00% and the “Antibody binding, in words” value is on record as “does not bind”.
For `COc1cccc(C2(O)CCCCC2CN(C)C)c1` (stereo not drawn) [Tramadol] the same measures were less than 5.00% and “does not bind”.
